Measured values reported in ChEMBL document CHEMBL1201862, “PubChem BioAssay data set” (2004).
Calls of active or inactive are those of the source.

Tests used:
[1] = microbe, parasite or virus in culture; assay type: functional; conditions: Mycobacterium tuberculosis
Nonstructural protein 1 = Nonstructural protein 1 (Influenza A virus, UniProt Q194T2); assay type: functional, Influenza A virus (A/California/07/2009(H1N1))
Prothrombin = Prothrombin (Homo sapiens, UniProt P00734); test: Thrombin 1536 HTS Dose Response Confirmation. [Related pubchem assays: 1046 (Thrombin 1536 HTS; hits were confirmed in this assay)]; assay type: functional
[2] = biological target: DNA dC->dU-editing enzyme APOBEC-3G (Homo sapiens, UniProt Q9HC16); test: Dose Response confirmation of small molecule APOBEC3G DNA Deaminase Inhibitors via a fluorescence-based single-stranded DNA deaminase assay. [Related pubchem assays (depositor defined):AID493012, AID493028]; assay type: functional
[3] = HEp-2 cell cytotoxicity, dose response, cytotoxicity control for RSV inhibitor project, HTS (AID 2410); assay type: functional; conditions: human respiratory syncytial virus
Cytochrome P450 3A4 = Cytochrome P450 3A4 (Homo sapiens, UniProt P08684);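 further: CYP3A4 tested as one member of a cytochrome P450 panel screen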
Aminopeptidase N = biological target: T1, Aminopeptidase N (Plasmodium falciparum FcB1/Columbia, UniProt O96935); test: P. falciparum M1AAP inhibitors, biochemical, fluorogenic H-Leu-NHMec substrate, 1536-well (AID 1445); design: species or system Plasmodium falciparum 3D7, 3D7
T1 sequence (O96935 whole entry): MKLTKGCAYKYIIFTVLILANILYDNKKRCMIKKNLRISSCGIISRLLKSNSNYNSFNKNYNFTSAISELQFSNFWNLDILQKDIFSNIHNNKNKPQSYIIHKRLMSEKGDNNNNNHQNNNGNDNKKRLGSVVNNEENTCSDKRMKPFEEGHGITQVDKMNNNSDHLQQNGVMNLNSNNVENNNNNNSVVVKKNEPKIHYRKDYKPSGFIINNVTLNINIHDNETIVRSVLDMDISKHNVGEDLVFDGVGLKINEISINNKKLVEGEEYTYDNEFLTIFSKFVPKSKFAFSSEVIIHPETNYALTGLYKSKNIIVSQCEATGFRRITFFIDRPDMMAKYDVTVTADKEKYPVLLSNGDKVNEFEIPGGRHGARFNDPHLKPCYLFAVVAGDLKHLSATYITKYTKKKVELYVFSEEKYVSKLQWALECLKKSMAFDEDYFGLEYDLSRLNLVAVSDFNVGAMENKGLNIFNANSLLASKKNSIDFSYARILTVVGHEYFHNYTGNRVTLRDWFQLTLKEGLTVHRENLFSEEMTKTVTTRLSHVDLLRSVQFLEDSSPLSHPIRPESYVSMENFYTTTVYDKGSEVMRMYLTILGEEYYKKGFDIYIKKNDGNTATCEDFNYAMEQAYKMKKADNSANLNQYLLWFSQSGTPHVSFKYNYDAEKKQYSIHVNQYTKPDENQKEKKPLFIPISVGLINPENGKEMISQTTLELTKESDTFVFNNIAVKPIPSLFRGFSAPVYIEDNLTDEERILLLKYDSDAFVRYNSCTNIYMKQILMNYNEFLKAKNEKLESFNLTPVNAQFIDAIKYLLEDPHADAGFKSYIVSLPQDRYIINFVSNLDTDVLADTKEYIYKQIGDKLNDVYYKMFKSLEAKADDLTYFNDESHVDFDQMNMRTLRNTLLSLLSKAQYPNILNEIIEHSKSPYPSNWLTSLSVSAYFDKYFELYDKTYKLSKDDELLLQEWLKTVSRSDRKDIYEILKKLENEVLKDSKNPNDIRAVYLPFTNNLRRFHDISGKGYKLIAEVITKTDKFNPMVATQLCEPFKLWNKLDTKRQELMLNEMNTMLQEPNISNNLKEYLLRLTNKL

[4] = biological target: FAD-linked sulfhydryl oxidase ALR (Homo sapiens, UniProt P55789); test: inhibitors of human ALR sulfhydryl oxidase, dose response, biochemical, H2O2 detection, luminescence, cherry-pick (AID 493248)
[5] = HeLa cell cytotoxicity, dose response, cytotoxicity control for MgcRacGAP inhibitor project (AID 624300); assay type: functional
[6] = biological target: T2, Rac GTPase-activating protein 1 (Homo sapiens, UniProt Q9H0H5); test: MgcRacGAP GTPase-activating activity inhibitors, confirmation, biochemical, ADP Hunter fluorescence, primary and confirmatory (AID 624330); assay type: functional
T2 sequence (Q9H0H5 whole entry): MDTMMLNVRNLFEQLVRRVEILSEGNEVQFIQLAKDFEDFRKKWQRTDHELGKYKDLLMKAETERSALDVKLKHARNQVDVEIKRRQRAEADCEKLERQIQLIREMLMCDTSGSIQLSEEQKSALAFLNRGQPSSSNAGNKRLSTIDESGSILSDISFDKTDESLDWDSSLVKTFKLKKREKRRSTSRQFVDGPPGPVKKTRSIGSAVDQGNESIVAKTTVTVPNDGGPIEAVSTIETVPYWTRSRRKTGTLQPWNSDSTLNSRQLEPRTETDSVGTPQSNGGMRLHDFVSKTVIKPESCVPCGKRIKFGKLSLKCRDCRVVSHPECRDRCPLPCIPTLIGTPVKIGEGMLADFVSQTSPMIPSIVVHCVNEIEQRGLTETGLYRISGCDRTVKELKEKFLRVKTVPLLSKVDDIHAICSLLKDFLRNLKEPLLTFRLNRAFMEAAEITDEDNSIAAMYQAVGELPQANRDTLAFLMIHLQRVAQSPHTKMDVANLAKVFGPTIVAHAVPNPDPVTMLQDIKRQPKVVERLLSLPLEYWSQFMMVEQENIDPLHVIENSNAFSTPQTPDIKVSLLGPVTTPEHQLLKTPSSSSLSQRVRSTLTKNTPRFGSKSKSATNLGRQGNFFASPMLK

[7] = biological target: T3, RNA-binding protein pos-1 (Caenorhabditis elegans, UniProt G5EF15); test: inhibitors of POS-1/mex-3 RNA binding, dose response, biochemical, fluorescence polarization (AID 1964);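 further: purified POS-1 fused to maltose binding protein made in E. coli; potency of compounds blocking POS-1 binding to fluorescent RNA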
T3 sequence (G5EF15 whole entry): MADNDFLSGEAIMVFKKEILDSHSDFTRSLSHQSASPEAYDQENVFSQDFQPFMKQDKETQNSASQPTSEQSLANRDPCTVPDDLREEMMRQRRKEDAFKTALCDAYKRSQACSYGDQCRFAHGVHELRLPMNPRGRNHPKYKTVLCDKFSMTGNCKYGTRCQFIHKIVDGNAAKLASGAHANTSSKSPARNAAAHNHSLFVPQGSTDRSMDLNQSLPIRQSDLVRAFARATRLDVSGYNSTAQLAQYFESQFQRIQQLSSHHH

[8] = biological target: T4, Zinc finger protein mex-5 (Caenorhabditis elegans, UniProt Q9XUB2); test: MEX-5/TCR-2 RNA interaction inhibitors, dose response, biochemical, C. elegans, fluorescence polarization (AID 1960)
T4 sequence (Q9XUB2 whole entry): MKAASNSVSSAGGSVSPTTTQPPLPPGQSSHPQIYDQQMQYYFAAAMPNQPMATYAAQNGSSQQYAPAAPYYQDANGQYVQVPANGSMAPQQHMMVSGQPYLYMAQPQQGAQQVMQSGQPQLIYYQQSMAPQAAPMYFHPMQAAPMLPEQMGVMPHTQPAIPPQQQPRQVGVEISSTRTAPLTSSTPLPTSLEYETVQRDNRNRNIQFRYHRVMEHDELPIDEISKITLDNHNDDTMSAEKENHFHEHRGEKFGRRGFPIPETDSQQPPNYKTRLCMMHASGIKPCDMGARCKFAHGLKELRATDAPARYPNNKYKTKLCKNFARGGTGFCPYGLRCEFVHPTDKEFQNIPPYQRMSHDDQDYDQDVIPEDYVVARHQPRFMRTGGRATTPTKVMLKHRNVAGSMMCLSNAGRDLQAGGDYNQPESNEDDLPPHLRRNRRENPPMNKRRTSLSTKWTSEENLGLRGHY

Leucine aminopeptidase = biological target: T5, Leucine aminopeptidase (Plasmodium falciparum 3D7, UniProt Q8IL11); test: P. falciparum M17LAP inhibitors, primary screen, biochemical, fluorogenic H-Leu-NHMec substrate, 1536-well (AID 1619); assay type: functional
T5 sequence (Q8IL11 whole entry): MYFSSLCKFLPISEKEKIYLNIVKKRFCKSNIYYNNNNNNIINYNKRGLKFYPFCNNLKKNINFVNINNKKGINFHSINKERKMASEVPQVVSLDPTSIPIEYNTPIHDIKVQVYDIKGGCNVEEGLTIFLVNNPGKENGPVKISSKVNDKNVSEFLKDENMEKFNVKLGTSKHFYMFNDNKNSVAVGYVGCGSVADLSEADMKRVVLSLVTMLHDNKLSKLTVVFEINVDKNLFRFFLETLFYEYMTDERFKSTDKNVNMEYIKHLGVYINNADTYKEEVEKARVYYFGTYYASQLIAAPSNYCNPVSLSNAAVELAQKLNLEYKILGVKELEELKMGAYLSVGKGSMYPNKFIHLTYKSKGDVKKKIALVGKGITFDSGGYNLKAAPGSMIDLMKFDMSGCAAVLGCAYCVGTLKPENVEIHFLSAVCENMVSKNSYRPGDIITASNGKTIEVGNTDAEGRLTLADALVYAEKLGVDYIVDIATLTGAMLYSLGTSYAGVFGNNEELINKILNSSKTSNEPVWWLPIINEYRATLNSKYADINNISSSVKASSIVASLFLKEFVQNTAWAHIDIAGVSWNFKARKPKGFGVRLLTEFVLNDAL

[9] = biological target: Glyceraldehyde-3-phosphate dehydrogenase (Homo sapiens, UniProt P04406)
[10] = biological target: T6, Heat shock factor protein 1 (Mus musculus, UniProt P38532); test: inhibition of MG132-induced HSE-luciferase signal, confirmation, cell-based, NIH3T3, luminescence, dose retest (AID 2382); assay type: functional;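 further: NIH3T3 fibroblasts with HSF1-driven luciferase reporter stressed by proteasome inhibitor MG132; luminescence from HSF1-driven luciferase expression after 8 hours of MG132 stress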
T6 sequence (P38532 whole entry): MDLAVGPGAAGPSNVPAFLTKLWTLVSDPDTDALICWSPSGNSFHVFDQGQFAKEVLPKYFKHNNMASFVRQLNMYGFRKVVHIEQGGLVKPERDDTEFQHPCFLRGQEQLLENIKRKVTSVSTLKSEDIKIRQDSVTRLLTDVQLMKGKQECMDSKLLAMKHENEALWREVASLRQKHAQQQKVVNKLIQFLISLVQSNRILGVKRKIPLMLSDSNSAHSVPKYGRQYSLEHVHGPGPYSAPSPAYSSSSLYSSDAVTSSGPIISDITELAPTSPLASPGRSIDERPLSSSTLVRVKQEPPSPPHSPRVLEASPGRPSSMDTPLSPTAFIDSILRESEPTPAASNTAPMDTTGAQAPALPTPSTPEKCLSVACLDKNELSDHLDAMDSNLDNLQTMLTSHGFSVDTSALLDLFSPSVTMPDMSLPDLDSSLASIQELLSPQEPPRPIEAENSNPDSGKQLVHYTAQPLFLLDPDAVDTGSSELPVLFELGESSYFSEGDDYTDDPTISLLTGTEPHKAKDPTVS

Fatty acid synthase [11] = biological target: T7, Fatty acid synthase (Homo sapiens, UniProt P49327); test: FAS thioesterase domain inhibitors, dose response, biochemical, endpoint fluorescence intensity, uHTS hits (AID 624327); assay type: functional;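 further: fluorescence from hydrolysis of an O-methyl fluorescein acyl ester substrate by the enzyme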
Fatty acid synthase [12] = biological target: T7, Fatty acid synthase; test: FAS thioesterase domain inhibitors, dose response, biochemical, kinetic fluorescence intensity (AID 624326); assay type: functional;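 further: rate of fluorescence rise from hydrolysis of a fluorogenic O-methyl fluorescein ester substrate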
[13] = P. falciparum Dd2 growth inhibitors, dose response, SYBR Green, cherry-picked samples (AID 1159567); assay type: functional, cell-based

T7 sequence (P49327 whole entry, the tested form may be a part): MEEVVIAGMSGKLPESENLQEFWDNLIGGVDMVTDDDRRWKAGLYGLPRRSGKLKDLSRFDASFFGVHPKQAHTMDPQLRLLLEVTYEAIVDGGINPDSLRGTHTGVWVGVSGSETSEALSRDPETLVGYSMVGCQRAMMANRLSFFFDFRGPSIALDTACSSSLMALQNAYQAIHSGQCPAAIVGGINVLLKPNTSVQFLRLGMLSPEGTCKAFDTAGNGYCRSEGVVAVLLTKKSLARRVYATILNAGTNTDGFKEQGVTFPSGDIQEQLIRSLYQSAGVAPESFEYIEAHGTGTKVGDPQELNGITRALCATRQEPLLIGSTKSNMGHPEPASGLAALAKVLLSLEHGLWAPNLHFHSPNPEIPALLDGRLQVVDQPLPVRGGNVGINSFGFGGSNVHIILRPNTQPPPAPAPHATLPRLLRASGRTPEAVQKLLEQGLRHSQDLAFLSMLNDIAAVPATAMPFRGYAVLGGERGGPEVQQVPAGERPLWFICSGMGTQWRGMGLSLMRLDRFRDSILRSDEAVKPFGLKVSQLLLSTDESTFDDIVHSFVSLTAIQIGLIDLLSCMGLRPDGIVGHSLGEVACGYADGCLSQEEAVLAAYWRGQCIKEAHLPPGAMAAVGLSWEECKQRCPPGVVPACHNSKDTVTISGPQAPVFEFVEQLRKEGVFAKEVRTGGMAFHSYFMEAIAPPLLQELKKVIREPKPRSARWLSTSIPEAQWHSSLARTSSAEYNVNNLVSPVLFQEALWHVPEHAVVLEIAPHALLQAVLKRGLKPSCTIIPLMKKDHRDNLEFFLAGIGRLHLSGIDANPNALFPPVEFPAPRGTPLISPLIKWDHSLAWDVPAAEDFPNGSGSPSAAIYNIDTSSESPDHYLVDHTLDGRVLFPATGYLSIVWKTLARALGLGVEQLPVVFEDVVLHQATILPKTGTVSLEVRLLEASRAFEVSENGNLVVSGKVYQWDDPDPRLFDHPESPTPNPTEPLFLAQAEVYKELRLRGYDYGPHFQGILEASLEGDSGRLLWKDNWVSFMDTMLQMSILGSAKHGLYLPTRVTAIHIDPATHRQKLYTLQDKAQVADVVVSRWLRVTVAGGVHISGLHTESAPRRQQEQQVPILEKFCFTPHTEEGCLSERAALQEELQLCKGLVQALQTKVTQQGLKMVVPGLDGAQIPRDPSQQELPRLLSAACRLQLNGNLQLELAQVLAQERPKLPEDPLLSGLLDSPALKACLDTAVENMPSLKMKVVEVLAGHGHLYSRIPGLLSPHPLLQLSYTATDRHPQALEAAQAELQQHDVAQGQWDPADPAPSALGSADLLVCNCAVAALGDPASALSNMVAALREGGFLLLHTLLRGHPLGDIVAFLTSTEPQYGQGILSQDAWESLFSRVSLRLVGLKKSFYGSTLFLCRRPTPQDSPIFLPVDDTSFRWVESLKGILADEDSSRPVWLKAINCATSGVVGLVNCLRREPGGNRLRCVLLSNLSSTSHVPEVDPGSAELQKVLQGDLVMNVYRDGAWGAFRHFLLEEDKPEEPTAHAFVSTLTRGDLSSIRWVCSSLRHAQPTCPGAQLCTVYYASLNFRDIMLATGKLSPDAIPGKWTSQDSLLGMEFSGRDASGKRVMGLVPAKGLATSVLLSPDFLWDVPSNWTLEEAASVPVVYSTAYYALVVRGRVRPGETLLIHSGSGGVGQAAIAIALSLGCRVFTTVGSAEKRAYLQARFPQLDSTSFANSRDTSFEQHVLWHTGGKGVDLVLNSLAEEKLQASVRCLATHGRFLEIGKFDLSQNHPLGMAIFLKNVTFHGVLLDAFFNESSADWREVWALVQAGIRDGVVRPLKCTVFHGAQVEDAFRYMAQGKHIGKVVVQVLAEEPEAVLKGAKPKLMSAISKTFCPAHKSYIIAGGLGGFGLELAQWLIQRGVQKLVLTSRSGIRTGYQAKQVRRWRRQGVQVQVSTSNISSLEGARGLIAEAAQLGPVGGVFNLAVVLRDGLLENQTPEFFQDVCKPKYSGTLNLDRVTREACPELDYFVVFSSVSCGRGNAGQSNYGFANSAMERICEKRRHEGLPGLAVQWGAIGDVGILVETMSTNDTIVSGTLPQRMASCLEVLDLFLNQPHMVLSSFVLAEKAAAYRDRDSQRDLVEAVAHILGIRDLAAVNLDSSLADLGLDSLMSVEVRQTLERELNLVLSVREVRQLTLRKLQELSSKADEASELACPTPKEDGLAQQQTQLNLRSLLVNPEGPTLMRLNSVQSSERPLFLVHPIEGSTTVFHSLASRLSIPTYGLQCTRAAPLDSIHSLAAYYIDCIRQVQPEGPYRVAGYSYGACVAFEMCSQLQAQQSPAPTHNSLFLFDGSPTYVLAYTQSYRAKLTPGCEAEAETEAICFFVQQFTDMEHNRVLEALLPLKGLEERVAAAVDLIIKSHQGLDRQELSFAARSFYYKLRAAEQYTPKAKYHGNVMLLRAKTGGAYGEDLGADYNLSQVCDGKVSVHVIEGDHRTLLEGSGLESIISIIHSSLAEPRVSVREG
Sequence of FAD-linked sulfhydryl oxidase ALR (P55789 whole entry): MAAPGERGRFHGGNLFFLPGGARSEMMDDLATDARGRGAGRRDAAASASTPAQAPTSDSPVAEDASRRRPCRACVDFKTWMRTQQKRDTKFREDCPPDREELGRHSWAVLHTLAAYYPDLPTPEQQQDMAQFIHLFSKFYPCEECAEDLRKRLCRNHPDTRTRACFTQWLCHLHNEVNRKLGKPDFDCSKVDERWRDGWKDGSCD
Sequence of Nonstructural protein 1 (Q194T2 whole entry): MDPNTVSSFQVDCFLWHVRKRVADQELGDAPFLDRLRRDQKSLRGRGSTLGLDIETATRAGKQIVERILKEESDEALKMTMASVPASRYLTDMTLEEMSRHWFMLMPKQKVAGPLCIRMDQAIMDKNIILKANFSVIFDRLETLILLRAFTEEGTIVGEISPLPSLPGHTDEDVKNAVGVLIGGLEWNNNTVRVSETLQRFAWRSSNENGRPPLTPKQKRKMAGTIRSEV
Sequence of Glyceraldehyde-3-phosphate dehydrogenase (P04406 whole entry): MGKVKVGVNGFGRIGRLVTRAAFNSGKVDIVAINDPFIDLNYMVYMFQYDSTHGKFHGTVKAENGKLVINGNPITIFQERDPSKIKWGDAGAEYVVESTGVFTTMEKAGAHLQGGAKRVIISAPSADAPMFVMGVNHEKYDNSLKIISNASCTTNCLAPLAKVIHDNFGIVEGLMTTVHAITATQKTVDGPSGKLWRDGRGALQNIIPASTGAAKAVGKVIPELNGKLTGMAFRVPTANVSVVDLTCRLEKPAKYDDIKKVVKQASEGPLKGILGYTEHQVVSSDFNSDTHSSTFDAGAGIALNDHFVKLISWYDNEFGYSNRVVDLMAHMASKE
Sequence of Cytochrome P450 3A4 (P08684 whole entry): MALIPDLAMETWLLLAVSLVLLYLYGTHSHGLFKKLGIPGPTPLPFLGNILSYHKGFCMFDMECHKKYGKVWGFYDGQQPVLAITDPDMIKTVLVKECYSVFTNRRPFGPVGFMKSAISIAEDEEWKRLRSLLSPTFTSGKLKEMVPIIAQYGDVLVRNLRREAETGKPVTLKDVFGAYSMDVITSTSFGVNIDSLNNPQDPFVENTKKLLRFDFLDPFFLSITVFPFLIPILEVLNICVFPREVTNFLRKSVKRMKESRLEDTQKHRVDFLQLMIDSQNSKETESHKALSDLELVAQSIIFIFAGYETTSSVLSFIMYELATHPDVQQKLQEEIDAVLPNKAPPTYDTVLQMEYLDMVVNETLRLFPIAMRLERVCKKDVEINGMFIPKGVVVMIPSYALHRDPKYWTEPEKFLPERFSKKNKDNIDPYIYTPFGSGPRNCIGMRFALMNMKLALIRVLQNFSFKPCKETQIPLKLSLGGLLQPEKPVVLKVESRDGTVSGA
Sequence of DNA dC->dU-editing enzyme APOBEC-3G (Q9HC16 whole entry): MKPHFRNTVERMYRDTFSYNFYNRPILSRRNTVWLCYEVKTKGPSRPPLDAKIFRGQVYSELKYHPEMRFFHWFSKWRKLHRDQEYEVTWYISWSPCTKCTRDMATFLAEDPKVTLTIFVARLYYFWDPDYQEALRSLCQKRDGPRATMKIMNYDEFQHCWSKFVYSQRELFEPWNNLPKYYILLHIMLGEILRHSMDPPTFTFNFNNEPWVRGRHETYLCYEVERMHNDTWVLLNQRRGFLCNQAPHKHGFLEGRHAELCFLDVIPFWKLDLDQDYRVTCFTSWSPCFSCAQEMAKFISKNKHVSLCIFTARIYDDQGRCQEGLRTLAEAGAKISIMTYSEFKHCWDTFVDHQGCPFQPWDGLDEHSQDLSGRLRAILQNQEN

Cc1ccc(C(c2nnnn2Cc2cccs2)N2CCN(Cc3ccc4c(c3)OCO4)CC2)cc1 (stereo not given)
CC50 [1]: > 40 µM (active) | IC50 (Nonstructural protein 1): > 100 µM (active)

Nc1nc(-c2cccnc2)nn1C(=O)c1ccc(F)cc1
IC50 (Prothrombin): 2.01 µM (active)

O=C(CCCSc1ccc(Cl)cc1)Nc1cc(S(=O)(=O)N2CCOCC2)ccc1O
IC50 [2]: 33.2 µM (active)

CCCC(=O)n1nc(-c2cccnc2)nc1NCc1ccc(OC)cc1
IC50 (Prothrombin): 0.0883 µM (active)

Nc1ccccc1C(=O)N=Nc1[nH]c(N)c2ccccc12
IC50 (Nonstructural protein 1): 20.7 µM (active)

CSc1nc(N)nc(-c2cccs2)c1C#N
CC50 [3]: > 25 µM (active) | AC50 (Cytochrome P450 3A4): 25.1 µM (inconclusive)

COc1cc(/C=C/C(=O)O)cc(S(=O)(=O)Nc2ccc3nc(SC)sc3c2)c1OC
IC50 (Aminopeptidase N): 66.4 µM (active)

CCOC(=O)CCNC(=O)N1CCCC(CNS(=O)(=O)c2cccs2)C1 (stereo not given)
IC50 (Prothrombin): > 50 µM (not active)

Cc1ccc2nc3c(nc2c1C)C(O)=C3O
IC50 (Aminopeptidase N): 48.5 µM (active)

Cc1cccc(-c2nc3ccccc3c(=O)n2NC(=O)c2cccs2)c1
IC50 (Aminopeptidase N): 44.1 µM (active)

O=C(CN1CCC(NC(=O)c2ccccc2F)CC1)Nc1ccc2c(c1)OCO2
IC50 (Aminopeptidase N): 34 µM (active)

CCn1c(/C=C/c2ccc(O)cc2)nc2ccccc2c1=O
AC50 [4]: 3.35 µM (active) | CC50 [5]: 100 µM (active) | IC50 [6]: 33.7 µM (active)

Cc1cccn2c(=O)c3cc(S(=O)(=O)c4ccccc4)c(=N)n(Cc4cccnc4)c3nc12
CC50 [3]: > 50 µM (active) | EC50 [7]: 8.88 µM (inconclusive) | EC50 [8]: 18.8 µM (inconclusive)

COc1ccc(NC(=O)CC2COc3ccccc3O2)c(OC)c1 (stereo not given)
IC50 (Leucine aminopeptidase): 7.18 µM (active)

Cc1cc(C)n(CCOc2ccc(Cl)cc2Cl)n1
CC50 [3]: > 50 µM (active)

CCOc1cc(S(=O)(=O)NCc2ccc(OC)cc2)c(OCC)cc1-n1cnnn1
IC50 (Prothrombin): > 50 µM (not active)

O=C(NCc1ccc2c(c1)OCO2)c1cnc2ccc(S(=O)(=O)N3CCOCC3)cc2c1O
IC50 (Prothrombin): 0.845 µM (active)

COc1ccc(-c2ccnc3nc(Sc4ncc(C(F)(F)F)cc4Cl)nn23)cc1
CC50 [3]: 36.7 µM (active)

O=C1C(Cl)=C(N2CCN(c3ncccn3)CC2)C(=O)N1c1ccnc(Cl)c1
IC50 [9]: > 50 µM (inconclusive)

O=C(N/N=C/c1coc2ccccc2c1=O)c1cccc([N+](=O)[O-])c1
IC50 (Leucine aminopeptidase): 35.2 µM (active)

COc1ccc(/C=N/Nc2ccc(C(=O)O)cc2)cc1Br
IC50 (Leucine aminopeptidase): 23.4 µM (active) | EC50 [10]: < 0.16 µM (active) | AC50 [4]: 0.837 µM (active)

COc1cccc(/C=N/NC(=S)Nc2cccc(C(=O)O)c2)c1
IC50 (Leucine aminopeptidase): 15.7 µM (active)

O=C(CN1CC(c2ccccc2)CC1=O)N/N=C/c1cc(Br)ccc1O (stereo not given)
IC50 (Aminopeptidase N): 11.8 µM (active) | IC50 (Fatty acid synthase [11]): 3.61 µM (active) | IC50 (Fatty acid synthase [12]): 4.11 µM (active)

O=S(=O)(c1ccc(F)cc1)N1C[C@@H]2N[C@H](C1)[C@H]2c1ccc(-c2ccc(F)cc2)cc1
AC50 [13]: 2.1 µM (active)

COc1ccc2c3c(n(C)c2c1)[C@H](CO)N(C(=O)CC1CC1)CC31CCN(Cc2nccs2)CC1
AC50 [13]: 3.93 µM (active)
